The source of these data is patent US20260022142A1, “MACROCYCLIC IMMUNOMODULATORS” (Bristol-Myers Squibb Company, priority 2022, published 2026).

The IC50 is the midpoint of a concentration-inhibition curve.

The structures appear in SMILES notation. Bridge positions count the residues as written; N and C are the ends. Square brackets hold non-standard residues; d marks the D form. Peptide text beside a SMILES is read from it. * marks the point of attachment. Phe(3-CF3) = N[C@@H](Cc1cccc(C(F)(F)F)c1)C(=O)O; Ala(morpholin-4-yl) = N[C@@H](CN1CCOCC1)C(=O)O; Phe(4-COOH) = N[C@@H](Cc1ccc(C(=O)O)cc1)C(=O)O; Bip = N[C@@H](Cc1ccc(-c2ccccc2)cc1)C(=O)O; NH(CH2)14COOH = O=C(O)CCCCCCCCCCCCCCN*; Phe(3-Me) = Cc1cccc(C[C@H](N)C(=O)O)c1; NH(CH2)12COOH = O=C(O)CCCCCCCCCCCCN*; Val(3-OH) = CC(C)(O)[C@H](N)C(=O)O; 4Pal = N[C@@H](Cc1ccncc1)C(=O)O; Cha = N[C@@H](CC1CCCCC1)C(=O)O; PEG4 = NCCOCCOCCOCCOCCC(=O)O; Carboxymethyl = O=C(O)C*; Orn = NCCC[C@H](N)C(=O)O; Dab = NCC[C@H](N)C(=O)O; Nva = CCC[C@H](N)C(=O)O; AEEA = NCCOCCOCC(=O)O

For this assay, the target named is T1, PD-1/PD-L1 interaction (PE-labeled human PD-L1-Ig binding to Jurkat cell line over-expressing human PD-1) (Homo sapiens, UniProt Q15116).
T1 construct: expressed in transfected cells; host or cells: Jurkat
T1 sequence (Q15116 25-288): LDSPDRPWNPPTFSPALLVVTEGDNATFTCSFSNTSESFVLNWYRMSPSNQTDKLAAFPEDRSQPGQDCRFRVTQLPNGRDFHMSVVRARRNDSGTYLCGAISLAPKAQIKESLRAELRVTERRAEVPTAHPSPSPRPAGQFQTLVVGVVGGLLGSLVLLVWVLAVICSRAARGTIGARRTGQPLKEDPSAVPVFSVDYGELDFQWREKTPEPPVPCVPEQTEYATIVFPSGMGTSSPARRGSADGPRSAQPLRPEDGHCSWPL
Briefly: Jurkat-PD-1 Cell Binding High-Content Screening Assay (CBA). The format is cell-based. To be noted: Jurkat cell line over-expressing human PD-1; PE-labeled PD-L1-Ig 20 nM final; read-out: Jurkat hPD1-PDL1 IC50. In outline:
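Jurkat-hPD-1 cells, DMEM/10% FCS; cpd 2 h 37° C; PE-PD-L1-Ig 20 nM final, 1 h; 4% PFA fix + Hoechst 33342, 3× dPBS wash; high-content imaging read-out.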
Turning to `COc1ccc(C[C@@H]2NC(=O)[C@H](Cc3cccc(C)c3)NC(=O)[C@H](CC(=O)O)NC(=O)[C@H](Cc3ccc(OCC(=O)O)cc3)NC(=O)[C@H](Cc3ccncc3)NC(=O)CSC[C@@H](C(=O)N[C@@H](CCN)C(=O)NCCOCCOCC(=O)NCCOCCOCC(=O)NCCCCCCCCCCCCC(=O)O)NC(=O)[C@H](CO)NC(=O)[C@H](C(C)(C)O)NC(=O)[C@H](CC3CCCCC3)NC(=O)[C@H](CCN)NC(=O)[C@@H](CC(C)C)NC(=O)[C@H](CCCN)NC(=O)[C@H](Cc3ccc(OCC(=O)O)cc3)NC(=O)[C@H](Cc3ccc(-c4ccccc4)cc3)NC2=O)cc1` [Compound 2894] ({CH2CO}-[4Pal]Y(Carboxymethyl)D[Phe(3-Me)]Y(Me)[Bip]Y(Carboxymethyl)[Orn][dL][Dab][Cha][Val(3-OH)]SC[Dab][AEEA][AEEA]-{NH(CH2)12COOH}; thioether N-14), the IC50 was found to be 259 nM.

For the molecule `Cc1cccc(C[C@@H]2NC(=O)[C@H](CC(=O)O)NC(=O)[C@H](Cc3ccc(OCC(=O)O)cc3)NC(=O)[C@H](Cc3c[nH]cn3)NC(=O)CSC[C@@H](C(=O)N[C@@H](CCN)C(=O)NCCOCCOCC(=O)NCCOCCOCC(=O)NCCCCCCCCCCCCC(=O)O)NC(=O)[C@H](CO)NC(=O)[C@H](C(C)(C)O)NC(=O)[C@H](CC3CCCCC3)NC(=O)[C@H](CCN)NC(=O)[C@@H](CC(C)C)NC(=O)[C@H](CCCN)NC(=O)[C@H](Cc3ccc(C(=O)O)cc3)NC(=O)[C@H](Cc3ccc(-c4ccccc4)cc3)NC(=O)[C@H](Cc3ccc(C(=O)O)cc3)NC2=O)c1` [Compound 2895] ({CH2CO}-HY(Carboxymethyl)D[Phe(3-Me)][Phe(4-COOH)][Bip][Phe(4-COOH)][Orn][dL][Dab][Cha][Val(3-OH)]SC[Dab][AEEA][AEEA]-{NH(CH2)12COOH}; thioether N-14), the IC50 is 11.4 nM.

With `Cc1cccc(C[C@@H]2NC(=O)[C@H](CC(=O)O)NC(=O)[C@H](Cc3ccc(OCC(=O)O)cc3)NC(=O)[C@H](CN3CCOCC3)NC(=O)CSC[C@@H](C(=O)N[C@@H](CCN)C(=O)NCCOCCOCC(=O)NCCOCCOCC(=O)NCCCCCCCCCCCCC(=O)O)NC(=O)[C@H](CO)NC(=O)[C@H](C(C)(C)O)NC(=O)[C@H](CC3CCCCC3)NC(=O)[C@H](CCN)NC(=O)[C@@H](CC(C)C)NC(=O)[C@H](CCCN)NC(=O)[C@H](Cc3ccc(OCC(=O)O)cc3)NC(=O)[C@H](Cc3ccc(-c4ccccc4)cc3)NC(=O)[C@H](Cc3ccc(OCC(=O)O)cc3)NC2=O)c1` [Compound 2896] ({CH2CO}-[Ala(morpholin-4-yl)]Y(Carboxymethyl)D[Phe(3-Me)]Y(Carboxymethyl)[Bip]Y(Carboxymethyl)[Orn][dL][Dab][Cha][Val(3-OH)]SC[Dab][AEEA][AEEA]-{NH(CH2)12COOH}; thioether N-14), the IC50 was determined as 4.1 nM.

For the molecule `Cc1cccc(C[C@@H]2NC(=O)[C@H](CC(=O)O)NC(=O)[C@H](Cc3ccc(OCC(=O)O)cc3)NC(=O)[C@H](CN3CCOCC3)NC(=O)CSC[C@@H](C(=O)N[C@@H](CCN)C(=O)NCCOCCOCC(=O)NCCOCCOCC(=O)NCCCCCCCCCCCCC(=O)O)NC(=O)[C@H](CO)NC(=O)[C@H](C(C)(C)O)NC(=O)[C@H](CC3CCCCC3)NC(=O)[C@H](CCN)NC(=O)[C@@H](CC(C)C)NC(=O)[C@H](CCCN)NC(=O)[C@H](Cc3ccc(C(=O)O)cc3)NC(=O)[C@H](Cc3ccc(-c4ccccc4)cc3)NC(=O)[C@H](Cc3ccc(C(=O)O)cc3)NC2=O)c1` [Compound 2897] ({CH2CO}-[Ala(morpholin-4-yl)]Y(Carboxymethyl)D[Phe(3-Me)][Phe(4-COOH)][Bip][Phe(4-COOH)][Orn][dL][Dab][Cha][Val(3-OH)]SC[Dab][AEEA][AEEA]-{NH(CH2)12COOH}; thioether N-14), the IC50 was determined as 1.6 nM.

`Cc1cccc(C[C@@H]2NC(=O)[C@H](CC(=O)O)NC(=O)[C@H](Cc3ccc(OCC(=O)O)cc3)NC(=O)[C@H](CN3CCOCC3)NC(=O)CSC[C@@H](C(=O)N[C@@H](CCN)C(=O)NCCOCCOCC(=O)NCCOCCOCC(=O)NCCCCCCCCCCCCC(=O)O)NC(=O)[C@H](CCC(=O)O)NC(=O)[C@H](C(C)(C)O)NC(=O)[C@H](CC3CCCCC3)NC(=O)[C@H](CCN)NC(=O)[C@@H](CC(C)C)NC(=O)[C@H](CCCN)NC(=O)[C@H](Cc3ccc(C(=O)O)cc3)NC(=O)[C@H](Cc3ccc(-c4ccccc4)cc3)NC(=O)[C@H](Cc3ccc(C(=O)O)cc3)NC2=O)c1` [Compound 2898] ({CH2CO}-[Ala(morpholin-4-yl)]Y(Carboxymethyl)D[Phe(3-Me)][Phe(4-COOH)][Bip][Phe(4-COOH)][Orn][dL][Dab][Cha][Val(3-OH)]EC[Dab][AEEA][AEEA]-{NH(CH2)12COOH}; thioether N-14): the half-inhibitory concentration (IC50) was 5.5 nM.

`Cc1cccc(C[C@@H]2NC(=O)[C@H](CC(=O)O)NC(=O)[C@H](Cc3ccc(OCC(=O)O)cc3)NC(=O)[C@H](CN3CCOCC3)NC(=O)CSC[C@@H](C(=O)N[C@@H](CCN)C(=O)NCCOCCOCC(=O)NCCOCCOCC(=O)NCCCCCCCCCCCCC(=O)O)NC(=O)[C@H](CC(=O)O)NC(=O)[C@H](C(C)(C)O)NC(=O)[C@H](CC3CCCCC3)NC(=O)[C@H](CCN)NC(=O)[C@@H](CC(C)C)NC(=O)[C@H](CCCN)NC(=O)[C@H](Cc3ccc(C(=O)O)cc3)NC(=O)[C@H](Cc3ccc(-c4ccccc4)cc3)NC(=O)[C@H](Cc3ccc(C(=O)O)cc3)NC2=O)c1` [Compound 2899] ({CH2CO}-[Ala(morpholin-4-yl)]Y(Carboxymethyl)D[Phe(3-Me)][Phe(4-COOH)][Bip][Phe(4-COOH)][Orn][dL][Dab][Cha][Val(3-OH)]DC[Dab][AEEA][AEEA]-{NH(CH2)12COOH}; thioether N-14): the half-inhibitory concentration (IC50) amounted to 5.4 nM.

For `Cc1cccc(C[C@@H]2NC(=O)[C@H](CC(=O)O)NC(=O)[C@H](Cc3ccc(C(=O)O)cc3)NC(=O)[C@H](CN3CCOCC3)NC(=O)CSC[C@@H](C(=O)N[C@@H](CCN)C(=O)NCCOCCOCC(=O)NCCOCCOCC(=O)NCCCCCCCCCCCCC(=O)O)NC(=O)[C@H](CO)NC(=O)[C@H](C(C)(C)O)NC(=O)[C@H](CC3CCCCC3)NC(=O)[C@H](CCN)NC(=O)[C@@H](CC(C)C)NC(=O)[C@H](CCCN)NC(=O)[C@H](Cc3ccc(C(=O)O)cc3)NC(=O)[C@H](Cc3ccc(-c4ccccc4)cc3)NC(=O)[C@H](Cc3ccc(C(=O)O)cc3)NC2=O)c1` [Compound 2900] ({CH2CO}-[Ala(morpholin-4-yl)][Phe(4-COOH)]D[Phe(3-Me)][Phe(4-COOH)][Bip][Phe(4-COOH)][Orn][dL][Dab][Cha][Val(3-OH)]SC[Dab][AEEA][AEEA]-{NH(CH2)12COOH}; thioether N-14), the IC50 is 6.2 nM.

As for `CCC[C@@H]1NC(=O)CSC[C@@H](C(=O)N[C@@H](CCN)C(=O)NCCOCCOCCOCCOCCC(=O)NCCCCCCCCCCCCC(=O)O)NC(=O)[C@H](CO)NC(=O)[C@H](C(C)(C)O)NC(=O)[C@H](CC2CCCCC2)NC(=O)[C@H](CCN)NC(=O)[C@@H](CC(C)C)NC(=O)[C@H](CCCN)NC(=O)[C@H](Cc2ccc(OCC(=O)O)cc2)NC(=O)[C@H](Cc2ccc(-c3ccccc3)cc2)NC(=O)[C@H](Cc2ccc(OCC(=O)O)cc2)NC(=O)[C@H](Cc2cccc(C(F)(F)F)c2)NC(=O)[C@H](CC(=O)O)NC(=O)[C@H](Cc2ccc(C(=O)O)cc2)NC1=O` [Compound 2901] ({CH2CO}-[Nva][Phe(4-COOH)]D[Phe(3-CF3)]Y(Carboxymethyl)[Bip]Y(Carboxymethyl)[Orn][dL][Dab][Cha][Val(3-OH)]SC[Dab][PEG4]-{NH(CH2)12COOH}; thioether N-14), the IC50 is 24.1 nM.

Consider `CCC[C@@H]1NC(=O)CSC[C@@H](C(=O)N[C@@H](CCN)C(=O)NCCOCCOCCOCCOCCC(=O)NCCCCCCCCCCCCCCC(=O)O)NC(=O)[C@H](CO)NC(=O)[C@H](C(C)(C)O)NC(=O)[C@H](CC2CCCCC2)NC(=O)[C@H](CCN)NC(=O)[C@@H](CC(C)C)NC(=O)[C@H](CCCN)NC(=O)[C@H](Cc2ccc(OCC(=O)O)cc2)NC(=O)[C@H](Cc2ccc(-c3ccccc3)cc2)NC(=O)[C@H](Cc2ccc(OCC(=O)O)cc2)NC(=O)[C@H](Cc2cccc(C(F)(F)F)c2)NC(=O)[C@H](CC(=O)O)NC(=O)[C@H](Cc2ccc(C(=O)O)cc2)NC1=O` [Compound 2902] ({CH2CO}-[Nva][Phe(4-COOH)]D[Phe(3-CF3)]Y(Carboxymethyl)[Bip]Y(Carboxymethyl)[Orn][dL][Dab][Cha][Val(3-OH)]SC[Dab][PEG4]-{NH(CH2)14COOH}; thioether N-14), for which the IC50 came out at 282 nM.

On to `CCC[C@@H]1NC(=O)CSC[C@@H](C(=O)N[C@@H](CCN)C(=O)NCCCCCCCCCCCCC(=O)O)NC(=O)[C@H](CO)NC(=O)[C@H](C(C)(C)O)NC(=O)[C@H](CC2CCCCC2)NC(=O)[C@H](CCN)NC(=O)[C@@H](CC(C)C)NC(=O)[C@H](CCCN)NC(=O)[C@H](Cc2ccc(OCC(=O)O)cc2)NC(=O)[C@H](Cc2ccc(-c3ccccc3)cc2)NC(=O)[C@H](Cc2ccc(OCC(=O)O)cc2)NC(=O)[C@H](Cc2cccc(C(F)(F)F)c2)NC(=O)[C@H](CC(=O)O)NC(=O)[C@H](Cc2ccc(C(=O)O)cc2)NC1=O` [Compound 2903] ({CH2CO}-[Nva][Phe(4-COOH)]D[Phe(3-CF3)]Y(Carboxymethyl)[Bip]Y(Carboxymethyl)[Orn][dL][Dab][Cha][Val(3-OH)]SC[Dab]-{NH(CH2)12COOH}; thioether N-14), for which the half-inhibitory concentration (IC50) was determined as 27.7 nM.

`CCC[C@@H]1NC(=O)CSC[C@@H](C(=O)N[C@@H](CCN)C(=O)NCCCCCCCCCCCCCCC(=O)O)NC(=O)[C@H](CO)NC(=O)[C@H](C(C)(C)O)NC(=O)[C@H](CC2CCCCC2)NC(=O)[C@H](CCN)NC(=O)[C@@H](CC(C)C)NC(=O)[C@H](CCCN)NC(=O)[C@H](Cc2ccc(OCC(=O)O)cc2)NC(=O)[C@H](Cc2ccc(-c3ccccc3)cc2)NC(=O)[C@H](Cc2ccc(OCC(=O)O)cc2)NC(=O)[C@H](Cc2cccc(C(F)(F)F)c2)NC(=O)[C@H](CC(=O)O)NC(=O)[C@H](Cc2ccc(C(=O)O)cc2)NC1=O` [Compound 2904] ({CH2CO}-[Nva][Phe(4-COOH)]D[Phe(3-CF3)]Y(Carboxymethyl)[Bip]Y(Carboxymethyl)[Orn][dL][Dab][Cha][Val(3-OH)]SC[Dab]-{NH(CH2)14COOH}; thioether N-14): the IC50 came to 518 nM.
